Here are results for one molecule from publication PMC6381168, “Anoctamin-4 is a bona fide Ca^2+-dependent non-selective cation channel” (Scientific Reports, 2019).

The experiment concerns the target T1, Ano4 (Mus musculus, UniProt Q8C5H1).
T1 construct: full length, 955 residues, C-terminal Myc tag (pcDNA3), transiently expressed in HEK293 cells
T1 sequence (Q8C5H1 1-955): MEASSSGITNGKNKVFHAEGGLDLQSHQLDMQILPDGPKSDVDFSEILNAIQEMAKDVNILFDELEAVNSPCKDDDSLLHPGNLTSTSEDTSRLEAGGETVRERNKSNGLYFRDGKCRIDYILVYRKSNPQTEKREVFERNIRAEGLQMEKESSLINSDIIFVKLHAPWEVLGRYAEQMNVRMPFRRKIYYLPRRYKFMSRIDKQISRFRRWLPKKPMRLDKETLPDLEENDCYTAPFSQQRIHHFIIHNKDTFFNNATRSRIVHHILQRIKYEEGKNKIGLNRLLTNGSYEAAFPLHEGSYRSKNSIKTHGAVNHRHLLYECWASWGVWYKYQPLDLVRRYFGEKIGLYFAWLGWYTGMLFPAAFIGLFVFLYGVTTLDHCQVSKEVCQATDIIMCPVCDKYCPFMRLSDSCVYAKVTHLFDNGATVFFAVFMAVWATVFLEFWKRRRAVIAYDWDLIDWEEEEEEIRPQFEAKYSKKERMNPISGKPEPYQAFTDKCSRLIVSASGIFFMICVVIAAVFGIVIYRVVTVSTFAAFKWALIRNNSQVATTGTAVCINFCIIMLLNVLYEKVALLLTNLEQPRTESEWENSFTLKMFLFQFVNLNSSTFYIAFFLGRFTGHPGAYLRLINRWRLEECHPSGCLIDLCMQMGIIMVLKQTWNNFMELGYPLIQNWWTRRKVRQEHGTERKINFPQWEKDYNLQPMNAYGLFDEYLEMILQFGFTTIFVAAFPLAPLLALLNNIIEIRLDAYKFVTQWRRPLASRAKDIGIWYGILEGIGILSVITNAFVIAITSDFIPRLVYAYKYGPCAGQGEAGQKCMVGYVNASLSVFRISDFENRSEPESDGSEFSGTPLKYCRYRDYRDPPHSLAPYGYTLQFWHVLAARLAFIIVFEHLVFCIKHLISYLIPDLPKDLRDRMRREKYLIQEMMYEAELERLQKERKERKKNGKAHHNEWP
The experiment is described as follows: whole-cell patch clamp, block of ionomycin-activated current. It is filed as cell-based. The note with it: 100 uM niflumic acid; extracellular Ringer with 1 uM ionomycin, pH 7.2, room temperature; channel blocker. (In general: Patch clamp records ionic current or voltage across a cell membrane.)

On to `O=C(O)c1cccnc1Nc1cccc(C(F)(F)F)c1` [niflumic acid], for which the “whole-cell patch clamp, block of ionomycin-activated current” value is given as “The Ano4-dependent current was blocked by the application of the fenamate niflumic acid”.
